Here are results for nine compounds from US20200277251A1, “NOVEL ANTIBACTERIAL COMPOUNDS AND METHODS OF MAKING AND USING SAME” (BROWN UNIVERSITY, priority 2017, published 2020).

For one experiment, the system named is E. coli. The note with it: cited from earlier work.
The subject of the next experiment is Bacillus subtilis. Put plainly: Resazurin microtiter MIC assay, activity against Bacillus subtilis. It is filed as cell-based. Here is the method:
Bacillus subtilis ATCC 11775 was plated on agar from a 20% glycerol stock solution stored at −80° C. Inoculated plates were then incubated at 37° C. under aerobic conditions for 16 hours. Single cultures were transferred to Nutrient Broth (NB) and cultured for 16 hours under the same conditions. […] Second passage cultures were standardized to O.D.−600 nm=1.0. The resazurin microtiter assay procedure described by Palomino and coworkers is used for assessing antimicrobial activity (Palomino, 2002, Antimicrob. Agents Chemother. 46:2720-2722). The assay is performed in LB broth. Resazurin sodium salt powder is prepared in distilled water and filter sterilized at […] (w/v) for MIC assays and at 0.01%8.55). (w/v) for single concentration assays. Compounds are first screened in MIC assays to assess whether growth inhibition is dependent on inhibitor concentration. The plates are incubated for 30 min under aerobic conditions. Growth controls containing no inhibitory compound, sterility controls without inoculation, and controls containing a known antibiotic, chloramphenicol, are also included. The innoculum was prepared from second passage cultures in Nutrient Broth (NB) and standardized to O.D.−600 nm=1.0 and the wells inoculated with a 1:20 dilution. Serial two-fold dilutions of each compound in 100 μL of medium are prepared directly in 96 well plates at concentrations ranging from 250 μM to 7 μM. After incubation 30 μL of resazurin solution is added to each well and incubated for 30 min. A change in color from blue to pink indicates reduction of resazurin, and therefore bacterial growth. Minimum inhibitory concentration (MIC) was determined as the lowest drug concentration that prevented the color change from blue to pink. Inhibition was quantified by observation of color change. Further studies were carried out at a single inhibitor concentration of 250 μM. The plates were incubated for 4 h under aerobic conditions with the same controls. After incubation 30 μL of resazurin solution was added to each well and incubated for 60 min. Inhibition was quantified by fluorescence readings from plate reader SAFIRE, Firmware: V 2.20 08/02 Safire. Excitation wavelength set to 560 nm, emission wavelength set to 590 nm. Well containing dye and non-inoculated cells was used as gain set. Plates are held at 37° C. and fluorescence measurements are taken at 0, 5, 10, 20, 30, and 60 min after addition of dye. Lower fluorescence values correlate to greater degrees of inhibition. Compounds are tested […] for their capacity to inhibit B. subtilis growth. […] Briefly, second-passage bacteria are incubated with inhibitor in a 96-well plate for four hours, then resazurin dye is added and color/fluorescence change is observed. […] Resorufin is also fluorescent and can be measured by a plate-reader.
On the technique in general: Resazurin is reduced to fluorescent resorufin, in cell work by metabolically active cells.

The subject of the next experiment is Streptococcus pneumoniae. Briefly: Resazurin microtiter MIC assay, activity against Streptococcus pneumoniae. It is filed as cell-based. Here is the method: The resazurin microtiter assay procedure described by Palomino and coworkers is used for assessing antimicrobial activity (Palomino, 2002, Antimicrob. Agents Chemother. 46:2720-2722). The assay is performed in LB broth. Resazurin sodium salt powder is prepared in distilled water and filter sterilized at […] (w/v) for MIC assays and at 0.01%8.55). (w/v) for single concentration assays. Compounds are first screened in MIC assays to assess whether growth inhibition is dependent on inhibitor concentration. The plates are incubated for 30 min under aerobic conditions. Growth controls containing no inhibitory compound, sterility controls without inoculation, and controls containing a known antibiotic, chloramphenicol, are also included. The innoculum was prepared from second passage cultures in Nutrient Broth (NB) and standardized to O.D.−600 nm=1.0 and the wells inoculated with a 1:20 dilution. Serial two-fold dilutions of each compound in 100 μL of medium are prepared directly in 96 well plates at concentrations ranging from 250 μM to 7 μM. After incubation 30 μL of resazurin solution is added to each well and incubated for 30 min. A change in color from blue to pink indicates reduction of resazurin, and therefore bacterial growth. Minimum inhibitory concentration (MIC) was determined as the lowest drug concentration that prevented the color change from blue to pink. Inhibition was quantified by observation of color change. Further studies were carried out at a single inhibitor concentration of 250 μM. The plates were incubated for 4 h under aerobic conditions with the same controls. After incubation 30 μL of resazurin solution was added to each well and incubated for 60 min. Inhibition was quantified by fluorescence readings from plate reader SAFIRE, Firmware: V 2.20 08/02 Safire. Excitation wavelength set to 560 nm, emission wavelength set to 590 nm. Well containing dye and non-inoculated cells was used as gain set. Plates are held at 37° C. and fluorescence measurements are taken at 0, 5, 10, 20, 30, and 60 min after addition of dye. Lower fluorescence values correlate to greater degrees of inhibition.

Converted amounts (≈) assume the structure as drawn.

As to `CC1=N[C@@H]2[C@@H](O)[C@H](O)[C@@H](CO)O[C@@H]2S1` [NAG-thiazoline], in the experiment with E. coli, the “effect on the viability of E. coli” value is “no effect”.

For the compound `CCCCNC(=O)C(C1CCCCC1)N(C(=O)c1ccccc1OC)C1CCCCC1` (stereo not drawn) [qgka], the MIC in the experiment on Bacillus subtilis was found to be 50 µM (≈ 21.4 µg/mL).

With `CCCCNC(=O)C(C1CCCCC1)N(C(=O)c1ccccc1SC)c1ccccc1` (stereo not drawn) [sgqa], the MIC in the experiment on Streptococcus pneumoniae (60 uM) came to 50 µM; in the experiment with Streptococcus pneumoniae (same MIC in mass units), 21.2 µg/mL. In the same order, the values of `C#CCN(C(=O)c1ccccc1C(F)(F)F)C(C(=O)NCCCC)C1CCCCC1` (stereo not drawn) [vgba] are 50 µM and 21.1 µg/mL. On to `CCCCNC(=O)C(C1CCCCC1)N(C(=O)c1ccccc1C(F)(F)F)C1CCCCC1` (stereo not drawn) [vgka], for which inhibition of growth in the experiment on Bacillus subtilis (MIC) required 50 µM (≈ 23.3 µg/mL).

With `O=C(NC1CCCCC1)C(C1CCCCC1)N(C(=O)c1ccccc1C(F)(F)F)C1CCCCC1` (stereo not drawn) [vgkc], the values for the MIC against Streptococcus pneumoniae (60 uM), against Streptococcus pneumoniae (same MIC in mass units) and in the experiment on Bacillus subtilis were 5 µM, 2.46 µg/mL and 50 µM (≈ 24.6 µg/mL), respectively. The compound `CCCCNC(=O)C(C1CCCCC1)N(C(=O)c1ccccc1C)C1CCCCC1` (stereo not drawn) [wgka] gave an MIC in the experiment with Bacillus subtilis of 50 µM (≈ 20.6 µg/mL). As for `CCCCNC(=O)C(C1CCCCC1)N(C(=O)c1ccccc1C)c1ccccc1` (stereo not drawn) [wgqa], the MIC amounted to 50 µM in the experiment on Streptococcus pneumoniae (60 uM) and 20.3 µg/mL with Streptococcus pneumoniae (same MIC in mass units). The matching figures for `CCCCNC(=O)C(C1CCCCC1)N(C(=O)c1ccccc1OC(C)=O)C1CCCCC1` (stereo not drawn) [ygka]: 5 µM and 2.33 µg/mL.

For orientation: MIC means the least concentration at which growth counts as inhibited.
